Structures can show the parent of a compound that is named as a salt.
Biological target: T1, h-NK1 receptors (Homo sapiens, UniProt P25103)
T1 construct: expressed in transfected cells; host or cells: CHO cells (permanent expression), crude cell membranes
Assay: Evaluation of NK1 antagonist transport efficiency to the central nervous system using a h-NK1 receptor binding assay
Settings: 5 min, brain extract of male SD rats 5 min after i.v. injection of test compound, CHO cell membranes expressing h-NK1, read-out: inhibition rate of 125I-BH-Substance P binding to h-NK1 receptors
Description: A. Evaluation of NK1 Antagonist Transport Efficiency to the Cental Nervous System Using a h-NK1 Receptor Binding Assay
(1) Administration of Test Compound and Extraction of the Compound From Brain
Male SD rats were given an i.v. injection of a solution containing a test compound (1 mg/kg). 5 Min later the animals were anesthetized by ether, bled and perfused through the aorta ascendens with 20 ml of saline. The brain was rapidly removed, weighed and homogenized in 4 vol. ice-cold distilled water by using Polytoron (KINEMATICA). To extract the test compound, 500 μl of the homogenate, 100 μl of methanol, 500 μl of 0.1 N NaOH and 4 ml of ethyl acetate were mixed by shaking for 10 min at room temperature. The organic phase (2.5 ml) was recovered by centrifugation at 3,000 rpm for 10 min, dried and dissolved in dimethyl sulfoxide.
(2) h-NK1 Receptor Binding Assay
(a) Crude CHO Cell Membrane Preparation
CHO cells permanently expressing h-NK1 receptors were harvested and homogenized with a Dounce homogenizer at 4° C. in a buffer (0.25 M sucrose, 25 mM Tris-HCl (pH 7.4), 10 mM MgCl2, 1 mM EDTA, 5 μg/ml p-APMSF). The homogenate was centrifuged (500×g, 10 min), and the pellet was resuspended in the same buffer, homogenized, and centrifuged. The two supernatants were combined and centrifuged (100,000×g, 1 hour). The crude cell membranes thus isolated were resuspended in a buffer (25 MM Tris-HCl (pH 7.4), 10 mM MgCl2, 1 mM EDTA, 5 μg/ml p-APMSF) and stored at −80° C. until use.
(b) ^125I-BH-Substance P Binding to the Prepared Membrane
Cell membranes (6 μg/ml) were incubated with ^125I-BH-Substance P (0.1 nM) with or without the extracted compounds in 0.25 ml of a medium (50 mM Tris-HCl (pH 7.4), 5 mM MnCl2, 20 μg/ml chymrostatin, 40 μg/ml bacitracin, 4 μg/ml leupeptin, 5 μg/ml p-APMSF, 200 μg/ml BSA) at 22° C. for 90 min. At the end of the incubation period, the contents were quickly filtered through a Blue Mat 11740 filter (pretreated with 0.1% polyethylenimine for 3 hours prior to use) by using SKATRON Cell Harvester. The filter was then washed with a washing buffer (50 mM Tris-HCl (pH 7.4), 5 mM MnCl2) . The radioactivity was counted by using an auto gamma counter (Packard RIASTAR 5420A). All data presented are specific binding defined as that displaceable by 3 μM unlabeled Substance P.

T1 sequence (P25103 whole entry): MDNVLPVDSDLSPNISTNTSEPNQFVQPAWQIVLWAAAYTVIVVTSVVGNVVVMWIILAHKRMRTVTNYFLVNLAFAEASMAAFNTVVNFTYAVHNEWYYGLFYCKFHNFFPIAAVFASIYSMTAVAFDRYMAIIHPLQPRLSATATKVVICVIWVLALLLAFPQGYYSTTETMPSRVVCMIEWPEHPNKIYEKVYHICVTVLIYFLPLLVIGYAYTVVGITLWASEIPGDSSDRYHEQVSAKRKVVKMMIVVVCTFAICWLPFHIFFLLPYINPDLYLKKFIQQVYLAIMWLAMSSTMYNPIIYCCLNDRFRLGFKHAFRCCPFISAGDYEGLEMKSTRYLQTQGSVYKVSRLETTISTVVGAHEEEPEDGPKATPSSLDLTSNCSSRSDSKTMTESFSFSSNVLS

inhibition at 1 mg/kg [%] | Compound
> 80 | Cc1ccc(C[C@@H]2CN(Cc3cn(C)cn3)CCN2C(=O)c2cc(C(F)(F)F)cc(C(F)(F)F)c2)cc1C [52-(1), (2R)-1-[3,5-Bis(trifluoromethyl)benzoyl]-2-(3,4-dimethylbenzyl)-4-[(1-methyl-1H-imidazol-4-yl)methyl]piperazine dihydrochloride]
> 80 | Cc1ccc(C[C@@H]2CN(CCCNN3CCOCC3)CCN2C(=O)c2cc(C(F)(F)F)cc(C(F)(F)F)c2)cc1C [67-(4), (2R)-1-[3,5-Bis(trifluoromethyl)benzoyl]-2-(3,4-dimethylbenzyl)-4-[3-(morpholinoamino)propyl]piperazine dihydrochloride]
> 80 | Cc1ccc(C[C@@H]2CN(CCCNCc3cccnc3)CCN2C(=O)c2cc(C(F)(F)F)cc(C(F)(F)F)c2)cc1C [82-(1), (2R)-1-[3,5-Bis(trifluoromethyl)benzoyl]-2-(3,4-dimethylbenzyl)-4-[N-(3-pyridylmethyl)-3-aminopropyl]piperazine trihydrochloride]
> 80 | Cc1ccc(C[C@@H]2CN(C/C=C/CNCc3cccnc3)CCN2C(=O)c2cc(C(F)(F)F)cc(C(F)(F)F)c2)cc1C [82-(5), (2R)-1-[3,5-Bis(trifluoromethyl)benzoyl]-2-(3,4-dimethylbenzyl)-4-[(E)-N-(3-pyridylmethyl)-4-amino-2-butenyl]piperazine trihydrochloride]
> 80 | O=C(c1cc(C(F)(F)F)cc(C(F)(F)F)c1)N1CCN(CCNCc2cccnc2)C[C@H]1Cc1ccc2ccccc2c1 [82-(7), (2R)-1-[3,5-Bis(trifluoromethyl)benzoyl]-2-(2-naphthylmethyl)-4-[N-(3-pyridylmethyl)-2-aminoethyl]piperazine trihydrochloride]
> 80 | O=C(c1cc(C(F)(F)F)cc(C(F)(F)F)c1)N1CCN(CCNN2CCOCC2)C[C@H]1Cc1ccc2ccccc2c1 [82-(8), (2R)-1-[3,5-Bis(trifluoromethyl)benzoyl]-2-(2-naphthylmethyl)-4-(N-morpholino-2-aminoethyl) piperazine dihydrochloride]

System: not given
Assay: not given
Settings: not given

melting point | Compound
183 °C (dec.) | Cl.O=C(CN1CCN(C(=O)c2cc(C(F)(F)F)cc(C(F)(F)F)c2)[C@H](Cc2c[nH]c3ccccc23)C1)N1CCN(c2ccc(F)cc2)CC1
270 °C (dec.) | Cl.O=C(CN1CCN(C(=O)c2cc(C(F)(F)F)cc(C(F)(F)F)c2)[C@H](Cc2c[nH]c3ccccc23)C1)N1CCN(C2CCCC2)CC1
265 °C (dec.) | Cl.Cl.O=C(c1cc(C(F)(F)F)cc(C(F)(F)F)c1)N1CCN(CCCN2CCOCC2)C[C@H]1Cc1c[nH]c2ccccc12
165 to 169 °C | Cl.Cl.O=C(c1cc(C(F)(F)F)cc(C(F)(F)F)c1)N1CCN(CC#CCN2CCOCC2)C[C@H]1Cc1c[nH]c2ccccc12
162 to 170 °C | Cc1ccc(C[C@@H]2CN(CC#CCN3CCSCC3)CCN2C(=O)c2cc(C(F)(F)F)cc(C(F)(F)F)c2)cc1C.Cl.Cl
170 to 176 °C | Cl.Cl.O=C(c1cc(C(F)(F)F)cc(C(F)(F)F)c1)N1CCN(CCN2CCOCC2)C[C@H]1Cc1c[nH]c2ccccc12
250 °C (dec.) | Cl.Cl.Cl.O=C(c1cc(C(F)(F)F)cc(C(F)(F)F)c1)N1CCN(CCCN2CCN(C3CCCCC3)CC2)C[C@H]1Cc1c[nH]c2ccccc12
140 °C (dec.) | Cc1ccc(C[C@@H]2CN(Cc3ccc([N+](=O)[O-])cc3)CCN2C(=O)c2cc(C(F)(F)F)cc(C(F)(F)F)c2)cc1C.Cl.Cl
195 °C (dec.) | Cl.O=C(CN1CCN(C(=O)c2cc(C(F)(F)F)cc(C(F)(F)F)c2)[C@H](Cc2c[nH]c3ccccc23)C1)c1cccc(F)c1
> 200 °C | Cl.Cl.O=C(c1cc(C(F)(F)F)cc(C(F)(F)F)c1)N1CCN(CCCN2CC=CCC2)C[C@H]1Cc1c[nH]c2ccccc12
150 °C (dec.) | Cl.Cl.O=C(c1cc(C(F)(F)F)cc(C(F)(F)F)c1)N1CCN(CCCN2CC3CCC(CC3)C2)C[C@H]1Cc1ccc(Cl)c(Cl)c1
> 200 °C | Cl.Cl.Cl.O=C(c1cc(C(F)(F)F)cc(C(F)(F)F)c1)N1CCN(CCCN2CCC(N3CCCCC3)CC2)C[C@H]1Cc1ccc(Cl)c(Cl)c1
175 to 180 °C | Cc1ccc(C[C@@H]2CN(CC#CCN3CCOC(CF)C3)CCN2C(=O)c2cc(C(F)(F)F)cc(C(F)(F)F)c2)cc1C.Cl.Cl (some centres unmarked)
195 to 197 °C | COC[C@@H]1CCCN1CC#CCN1CCN(C(=O)c2cc(C(F)(F)F)cc(C(F)(F)F)c2)[C@H](Cc2ccc(C)c(C)c2)C1.Cl.Cl
140 to 155 °C | COCC1COCCN1CC#CCN1CCN(C(=O)c2cc(C(F)(F)F)cc(C(F)(F)F)c2)[C@H](Cc2ccc(C)c(C)c2)C1.Cl.Cl (some centres unmarked)
171 °C (dec.) | Cl.O=C(CN1CCN(C(=O)c2cc(C(F)(F)F)cc(C(F)(F)F)c2)[C@H](Cc2c[nH]c3ccccc23)C1)c1ccc(F)c(F)c1

melting point | Compound
203 °C (dec.) | Cc1ccc(C(=O)CN2CCN(C(=O)c3cc(C(F)(F)F)cc(C(F)(F)F)c3)[C@H](Cc3c[nH]c4ccccc34)C2)cc1.Cl
166 °C (dec.) | Cc1ccc(C(=O)CN2CCN(C(=O)c3cc(C(F)(F)F)cc(C(F)(F)F)c3)[C@H](Cc3c[nH]c4ccccc34)C2)cc1C.Cl
140 to 150 °C | Cc1ccc(C[C@@H]2CN(CC#Cc3cccnc3)CCN2C(=O)c2cc(C(F)(F)F)cc(C(F)(F)F)c2)cc1C.Cl.Cl
> 230 °C | Cl.Cl.O=C(c1cc(C(F)(F)F)cc(C(F)(F)F)c1)N1CCN(C/C=C/CN2CCSCC2)C[C@H]1Cc1ccc2ccccc2c1
> 230 °C | Cc1ccc(C[C@@H]2CN(C/C=C/CN3CCSCC3)CCN2C(=O)c2cc(C(F)(F)F)cc(C(F)(F)F)c2)cc1C.Cl.Cl
> 230 °C | Cc1ccc(C[C@@H]2CN(C/C=C/CN3CCOCC3(C)C)CCN2C(=O)c2cc(C(F)(F)F)cc(C(F)(F)F)c2)cc1C.Cl.Cl
152 to 156 °C | Cl.Cl.O=C(c1cc(C(F)(F)F)cc(C(F)(F)F)c1)N1CCN(CC#CCN2CCSCC2)C[C@H]1Cc1ccc2ccccc2c1
175 to 190 °C | Cc1ccc(C[C@@H]2CN(CC#CCN3CCN(C4CCCCC4)CC3)CCN2C(=O)c2cc(C(F)(F)F)cc(C(F)(F)F)c2)cc1C.Cl.Cl.Cl
173 °C (dec.) | Cl.Cl.O=C(c1cc(C(F)(F)F)cc(C(F)(F)F)c1)N1CCN(CC#CCN2CCSCC2)C[C@H]1Cc1ccc(C(F)(F)F)cc1
191 °C (dec.) | Cl.Cl.O=C(c1cc(C(F)(F)F)cc(C(F)(F)F)c1)N1CCN(CC#CCN2CCSCC2)C[C@H]1Cc1cccc2ccccc12
163 to 165 °C | Cc1ccc(C[C@@H]2CN(CCCc3cnn(C)c3)CCN2C(=O)c2cc(C(F)(F)F)cc(C(F)(F)F)c2)cc1C.Cl
163 to 168 °C | Cc1ccc(C[C@@H]2CN(CCCc3cccnc3)CCN2C(=O)c2cc(C(F)(F)F)cc(C(F)(F)F)c2)cc1C.Cl.Cl
185 °C (dec.) | CN(C)c1ccc(C(=O)CN2CCN(C(=O)c3cc(C(F)(F)F)cc(C(F)(F)F)c3)[C@H](Cc3c[nH]c4ccccc34)C2)cc1 [Example 8, (2R)-1-[3,5-bis (trifluoromethyl)benzoyl]-4-(4-dimethylaminophenylcarbonylmethyl)-2-(1H-indol-3-ylmethyl]piperazine]
186 to 187.5 °C | CC(=O)c1cccc(C(=O)N2CCN(C(=O)c3cc(C(F)(F)F)cc(C(F)(F)F)c3)[C@H](Cc3c[nH]c4ccccc34)C2)c1 [Example 16-(1), (2R)-4-(3-Acetylbenzoyl)-1-[3,5-bis(trifluoromethyl)benzoyl]-2-(1H-indol-3-ylmethyl)piperazine]
190 to 192 °C | CC(=O)c1ccccc1C(=O)N1CCN(C(=O)c2cc(C(F)(F)F)cc(C(F)(F)F)c2)[C@H](Cc2c[nH]c3ccccc23)C1 [Example 16-(2), (2R)-4-(2-Acetylbenzoyl)-1-[3,5-bis(trifluoromethyl)benzoyl]-2-(1H-indol-3-ylmethyl)piperazine]
145 to 146 °C | O=C(c1cc(C(F)(F)F)cc(C(F)(F)F)c1)N1CCN(CCCC2(c3ccc(F)cc3)OCCO2)C[C@H]1Cc1c[nH]c2ccccc12 [Example 38, (2R)-4-[4,4-ethylenedioxy-4-(4-fluorophenyl)butyl]-1-[3,5-bis (trifluoromethyl)benzoyl]-2-(1H-indol-3-ylmethyl) piperazine]
